Measured values taken from publication PMC6524873 (TH Open: Companion Journal to Thrombosis and Haemostasis, 2018).

How the values were obtained:
human plasma [1] = assay: Prothrombin time (PT) in pooled normal human plasma; assay type: biochemical; details: up to 1,100 ng/mL
Protocol: (§1) The ranges of inhibitor concentrations were chosen to encompass the peak and trough plasma levels measured in patients treated with these agents. [26] The PT was performed using HemosIL HS PLUS (Instrumentation Laboratory, Lexington, Massachusetts, United States) on an ACL 7000 coagulometer (Instrumentation Laboratory) according to the manufacturer's instructions. The aPTT was performed using Actin FSL reagent (Siemens, Marburg, Germany) on a BCS XP analyzer (Siemens) according to the manufacturer's instructions. Assays were performed three times in duplicate at 37 ° C. These PT and aPTT reagents were chosen because of their wide availability and their reported sensitivities to rivaroxaban and apixaban. [27]

human plasma [2] = assay: Activated partial thromboplastin time (aPTT) in pooled normal human plasma; assay type: biochemical; details: up to 1,100 ng/mL
Protocol: as §1

[3] = test system: thrombin generation in plasma; assay: Plasma-based calibrated thrombin generation assay; assay type: biochemical, human; details: 3 pM tissue factor, concentration-dependent
[4] = molecular target: T1, factor Xa incorporated in prothrombinase (Homo sapiens, UniProt P00742); assay: Rate constants of inhibition of factor Xa in prothrombinase (prothrombin activation, thrombin-DAPA fluorescence, Scheme 2)
T1 sequence (P00742 41-179 limits assumed): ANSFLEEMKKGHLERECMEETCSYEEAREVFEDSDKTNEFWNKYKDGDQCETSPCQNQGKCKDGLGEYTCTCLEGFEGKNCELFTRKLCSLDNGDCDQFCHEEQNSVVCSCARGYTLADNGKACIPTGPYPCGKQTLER
T1 sequence (P00742 235-488 limits assumed): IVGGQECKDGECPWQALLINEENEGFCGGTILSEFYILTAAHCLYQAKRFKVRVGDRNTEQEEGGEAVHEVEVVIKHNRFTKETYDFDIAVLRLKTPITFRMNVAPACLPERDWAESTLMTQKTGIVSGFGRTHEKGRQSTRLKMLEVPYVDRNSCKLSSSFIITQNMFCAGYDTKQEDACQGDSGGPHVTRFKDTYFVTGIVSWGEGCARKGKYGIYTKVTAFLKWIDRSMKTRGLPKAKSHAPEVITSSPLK
T1 sequence (P12259 29-737 partner limits assumed): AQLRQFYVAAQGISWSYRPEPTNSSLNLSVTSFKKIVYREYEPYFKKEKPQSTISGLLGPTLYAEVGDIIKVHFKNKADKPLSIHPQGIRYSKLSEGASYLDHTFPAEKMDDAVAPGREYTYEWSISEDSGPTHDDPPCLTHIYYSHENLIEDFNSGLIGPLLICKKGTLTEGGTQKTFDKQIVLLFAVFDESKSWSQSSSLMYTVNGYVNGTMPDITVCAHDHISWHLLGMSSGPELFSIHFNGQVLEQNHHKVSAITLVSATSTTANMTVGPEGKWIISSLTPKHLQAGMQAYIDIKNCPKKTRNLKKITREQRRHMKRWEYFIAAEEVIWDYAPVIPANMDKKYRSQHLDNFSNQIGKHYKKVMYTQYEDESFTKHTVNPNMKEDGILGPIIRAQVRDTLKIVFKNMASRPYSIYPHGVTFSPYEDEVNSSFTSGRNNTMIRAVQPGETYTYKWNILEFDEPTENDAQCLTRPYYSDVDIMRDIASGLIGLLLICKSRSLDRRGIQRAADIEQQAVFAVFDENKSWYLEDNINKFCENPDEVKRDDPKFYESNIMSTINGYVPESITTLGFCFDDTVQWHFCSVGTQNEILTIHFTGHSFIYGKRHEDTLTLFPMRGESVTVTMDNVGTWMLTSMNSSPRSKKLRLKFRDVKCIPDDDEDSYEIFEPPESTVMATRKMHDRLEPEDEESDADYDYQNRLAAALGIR
T1 sequence (P12259 1574-2224 partner limits assumed): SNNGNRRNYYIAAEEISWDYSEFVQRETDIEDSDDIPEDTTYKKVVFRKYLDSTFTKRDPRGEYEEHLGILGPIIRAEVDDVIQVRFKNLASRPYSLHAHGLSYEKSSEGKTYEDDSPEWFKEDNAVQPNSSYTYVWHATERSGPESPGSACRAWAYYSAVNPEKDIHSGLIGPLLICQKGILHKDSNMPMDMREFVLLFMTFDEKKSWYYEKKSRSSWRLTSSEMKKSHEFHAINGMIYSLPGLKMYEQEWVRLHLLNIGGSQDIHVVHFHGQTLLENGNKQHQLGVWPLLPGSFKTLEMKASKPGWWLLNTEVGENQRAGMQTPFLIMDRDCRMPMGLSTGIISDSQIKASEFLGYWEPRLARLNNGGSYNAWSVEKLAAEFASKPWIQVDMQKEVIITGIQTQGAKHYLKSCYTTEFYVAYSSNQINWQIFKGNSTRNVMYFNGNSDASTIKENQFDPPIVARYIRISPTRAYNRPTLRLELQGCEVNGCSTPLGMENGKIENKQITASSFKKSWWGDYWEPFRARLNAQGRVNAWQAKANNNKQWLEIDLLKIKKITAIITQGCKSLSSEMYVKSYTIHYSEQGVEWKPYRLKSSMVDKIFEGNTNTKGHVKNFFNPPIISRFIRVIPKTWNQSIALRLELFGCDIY

factor Xa [5] = molecular target: T2, factor Xa (Homo sapiens, UniProt P00742); assay: biochemical; details: read-out: inhibition of factor Xa chromogenic activity
T2 sequence (P00742 41-179 limits assumed): as the sequence (P00742 41-179 limits assumed) above
T2 sequence (P00742 235-488 limits assumed): as the sequence (P00742 235-488 limits assumed) above

[6] = molecular target: factor Xa incorporated into the prothrombinase complex (Homo sapiens, UniProt P00742); assay: Factor Xa chromogenic activity in the presence of factor Va, PCPS and prothrombin (hirudin added); details: dose-dependent, data not shown
Chain of factor Xa incorporated into the prothrombinase complex (P00742 41-179 limits assumed): as the sequence (P00742 41-179 limits assumed) above
Chain of factor Xa incorporated into the prothrombinase complex (P00742 235-488 limits assumed): as the sequence (P00742 235-488 limits assumed) above
Chain of factor Xa incorporated into the prothrombinase complex (P12259 29-737 partner limits assumed): as the sequence (P12259 29-737 partner limits assumed) above
Chain of factor Xa incorporated into the prothrombinase complex (P12259 1574-2224 partner limits assumed): as the sequence (P12259 1574-2224 partner limits assumed) above

[7] = molecular target: T1, factor Xa incorporated in prothrombinase; assay: Rate constants of inhibition of prothrombinase with rMZ as substrate (meizothrombin-DAPA fluorescence); details: 37°C
factor Xa [8] = molecular target: T2, factor Xa; assay: Rate constants of inhibition of factor Xa (Pefafluor Xa, mixed inhibition model, Scheme 1); assay type: biochemical; parameters: factor Xa and thrombin were purchased from Enzyme Research Laboratories; purchased Enzyme Research Laboratories (South Bend, IN)
[9] = 37°C, prothrombinase in complex with either form of meizothrombin
[10] = 37°C, prothrombinase in complex with prothrombin
[11] = prothrombin substrate, 37°C, prothrombinase without prothrombin
[12] = 37°C, […] inhibitor, 100 µM Pefafluor Xa, […] factor Xa

Which results are given for `COc1ccc(-n2nc(C(N)=O)c3c2C(=O)N(c2ccc(N4CCCCC4=O)cc2)CC3)cc1` [Apixaban, 1-(4-methoxyphenyl)-7-oxo-6-(4-(2-oxopiperidin-1-yl)phenyl)-4,5,6,7-tetrahydro-1H-pyrazolo[3,4-c]pyridine-3-carboxamide]?
effect on the PT (human plasma [1]): prolonged the PT and aPTT in a concentration-dependent manner; effect on the aPTT (human plasma [2]): prolonged the PT and aPTT in a concentration-dependent manner; effect on endogenous thrombin potential (ETP) [3]: decreased endogenous thrombin potential (ETP); effect on lag time [3]: prolonged the lag time

Which results are given for `O=C(NC[C@H]1CN(c2ccc(N3CCOCC3=O)cc2)C(=O)O1)c1ccc(Cl)s1` [Rivaroxaban, 5-chloro-N-((5S)-2-oxo-3-[4-(3-oxomorpholin-4-yl)phenyl]-1,3-oxazolidin-5-ylmethyl)thiophene-2-carboxamide]?
ji 3, off-rate, E · M + I ⇔ E · M · I or E · M2 + I ⇔ E · M2 · I [4, 9]: (2.95 ± 0.11) × 10 ^−3 s ^−1; ki 3, on-rate, E · M + I ⇔ E · M · I or E · M2 + I ⇔ E · M2 · I [4, 9]: (2.37 ± 0.22) × 10 ^−3 nM ^−1 ·s ^−1; ji 2, off-rate, E · P + I ⇔ E · P · I [4, 10]: (1.12 ± 0.15) × 10 ^−2 s ^−1; ki 2, on-rate, E · P + I ⇔ E · P · I [4, 10]: (1.24 ± 0.02) × 10 ^−2 nM ^−1 ·s ^−1; K Pase1, lower than apixaban ([4]; free enzyme inhibition, prothrombin substrate): 454 fold; dissociation rates, faster than apixaban ([4]; free factor Xa or factor Xa incorporated into the prothrombinase complex): about 3 fold; ji 1, off-rate, E + I ⇔ E · I [4, 11]: (1.31 ± 0.11) × 10 ^−3 s ^−1; ki 1, on-rate, E + I ⇔ E · I [4, 11]: (5.38 ± 0.35) × 10 ^−3 nM ^−1 ·s ^−1; ki 3 on-rate with prothrombinase-meizothrombin complex, slower than apixaban ([4]; rivaroxaban slower than apixaban): 3 fold; inhibition at 0.02 µM (factor Xa [5]): ~85%; effect on the PT (human plasma [1]): prolonged the PT and aPTT in a concentration-dependent manner; effect on the aPTT (human plasma [2]): prolonged the PT and aPTT in a concentration-dependent manner; inhibition of factor Xa chromogenic activity in the presence of prothrombinase components [6]: over 95%; ji 1, off-rate, E + I ⇔ E · I ([7]; free prothrombinase): (2.15 ± 0.18) × 10 ^−3 s ^−1; ki 1, on-rate, E + I ⇔ E · I ([7]; free prothrombinase): (3.46 ± 0.49) × 10 ^−2 nM ^−1 ·s ^−1; ji 2, off-rate, E · rMZ + I ⇔ E · rMZ · I ([7]; prothrombinase-rMZ complex): (1.23 ± 0.08) × 10 ^−4 s ^−1; ki 2, on-rate, E · rMZ + I ⇔ E · rMZ · I ([7]; prothrombinase-rMZ complex): (6.41 ± 0.44) × 10 ^−3 nM ^−1 ·s ^−1; effect on endogenous thrombin potential (ETP) [3]: decreased endogenous thrombin potential (ETP); effect on lag time [3]: prolonged the lag time; effect on peak thrombin concentration [3]: reduced peak thrombin concentration; j 3, off-rate, free factor Xa (factor Xa [8]; [12]): (3.21 ± 0.28) × 10 ^−2 s ^−1; j 4, off-rate, factor Xa-substrate complex (factor Xa [8]; [12]): (2.01 ± 0.17) × 10 ^−2 s ^−1; k 3, on-rate, free factor Xa (factor Xa [8]; [12]): (3.77 ± 0.32) × 10 ^−2 nM ^−1 ·s ^−1; k 4, on-rate, factor Xa-substrate complex (factor Xa [8]; [12]): (1.34 ± 0.04) × 10 ^−2 nM ^−1 ·s ^−1; on- and off-rate constants for binding factor Xa alone (k 3 and j 3), on average faster than apixaban (factor Xa [8]; average of k3 and j3 ratios): 21 fold; binding to the factor Xa-fluorogenic substrate complex (k 4 and j 4), on average faster than apixaban (factor Xa [8]; average of k4 and j4 ratios): 25 fold; rate of factor Xa inhibition, faster than apixaban (factor Xa [8]; kinetic measurements, p < 0.001): up to 4 fold
